This is an account of results in ChEMBL document CHEMBL1126299, “Synthesis and structure-activity relationships of cephalosporins with C-3' catechol-containing residues” (J Med Chem, 1992).

SMILES strings stand for the structures. In brackets after ≈: the same amount, converted by molar mass.

Data set [1] deals with Pseudomonas aeruginosa. As to the kind of experiment: The compound was tested for minimum inhibitory concentration in Pseudomonas aeruginosa,799/61 permeability mutant. It is filed as functional.
In data set [2] the test system is Pseudomonas aeruginosa. As to the kind of experiment: The compound was tested for minimum inhibitory concentration in Pseudomonas aeruginosa,799WT parent organism. It is filed as functional.
Data set [3] relates to Enterobacter cloacae. The data set can be described thus: microbe, parasite or virus in culture.
Description: Minimum inhibitory concentration in Enterobacter cloacae, DR 401108 constitutive depressed type 1 lactamase producer
Data set [4] concerns Enterobacter cloacae. The data set can be described thus: microbe, parasite or virus in culture. This is another data set of the same source.
Description: Minimum inhibitory concentration in Enterobacter cloacae, P99+ constitutive depressed type 1 lactamase producer
Data set [5] has as its system Enterobacter cloacae. As to the kind of experiment: microbe, parasite or virus in culture. The source holds these as a separate data set.
Description: Minimum inhibitory concentration in Enterobacter cloacae, I+401029 inducible type 1 lactamase producer
Data set [6] deals with Enterobacter cloacae. As to the kind of experiment: microbe, parasite or virus in culture. The source holds these as a separate data set.
Description: Minimum inhibitory concentration in Enterobacter cloacae, P99- inducible type 1 lactamase producer
The subject of data set [7] is Pseudomonas aeruginosa. The data set can be described thus: microbe, parasite or virus in culture.
Description: Minimum inhibitory concentration in Pseudomonas aeruginosa, 18S inducible type 1 lactamase producer
The subject of data set [8] is Pseudomonas aeruginosa. The data set can be described thus: microbe, parasite or virus in culture. The source holds these as a separate data set.
Description: In vitro minimum inhibitory concentration against Pseudomonas aeruginosa (PU21).
The test system of data set [9] is Pseudomonas aeruginosa. As to the kind of experiment: microbe, parasite or virus in culture. The source holds these as a separate data set.
Description: Minimum inhibitory concentration in Pseudomonas aeruginosa, 18SH constitutive depressed type 1 lactamase producer
The subject of data set [10] is Providencia stuartii. The data set can be described thus: microbe, parasite or virus in culture.
Description: Minimum inhibitory concentration in Pseudomonas stuartii, DR 442049 constitutive depressed type 1 lactamase producer
The test system of data set [11] is Providencia stuartii. As to the kind of experiment: microbe, parasite or virus in culture. This is another data set of the same source.
Description: Minimum inhibitory concentration in Pseudomonas stuartii, I+442019 inducible type 1 lactamase producer
The nature of data set [12]: The compound was evaluated for area under the curve in marmosets. The following applies: callithrix, in vivo. The format is ADME.
Data set [13] is described as follows: The half life period in marmosets. It is filed as ADME. The following applies: callithrix, in vivo.
Data set [14] has as its target Beta-lactamase TEM (Escherichia coli) (UniProt P62593). As to the kind of experiment: The dissociation constant of compound was tested for beta-Lactamase stability.
Data set [15] concerns Enterobacter cloacae. The data set can be described thus: The compound was tested for minimum inhibitory concentration in Enterobacter cloacae, DR 401108 constitutive depressed type 1 lactamase producer. It is filed as functional.
The species entered for the next data set is Homo sapiens. The data set can be described thus: Compound is evaluated for serum protein binding in human blood (protein binding in marmoset blood). The format is functional.
Data set [16] in a line: The compound was tested for % urinary recovery in marmosets at the dose of 3 mg/kg. It is filed as ADME, organism-based. Also on record: dose 3 mg/kg. The following applies: callithrix, urine, read-out: Recovery.
Data set [17] concerns Citrobacter freundii. The data set can be described thus: microbe, parasite or virus in culture.
Description: Minimum inhibitory concentration in Citrobacter freundii, DR 382031 constitutive depressed type 1
Data set [18] has as its system Citrobacter freundii. As to the kind of experiment: microbe, parasite or virus in culture. This is another data set of the same source.
Description: Minimum inhibitory concentration in Citrobacter freundii, I+382010 inducible type 1 lactamase producer
Data set [19] has as its system Pseudomonas aeruginosa. The data set can be described thus: microbe, parasite or virus in culture. This is another data set of the same source.
Description: Minimum inhibitory concentration in Pseudomonas aeruginosa,799WT parent organism
Data set [20] concerns Pseudomonas aeruginosa. As to the kind of experiment: microbe, parasite or virus in culture. This is another data set of the same source.
Description: Minimum inhibitory concentration in Pseudomonas aeruginosa,799/61 permeability mutant
For data set [21], the system named is Citrobacter freundii. The data set can be described thus: The compound was tested for minimum inhibitory concentration in Citrobacter freundii, Citrobacter freundii, DR 382031. The format is functional.
Data set [22] concerns Providencia stuartii. The data set can be described thus: The compound was tested for minimum inhibitory concentration in Pseudomonas stuartii,I+442019 inducible type 1 lactamase producer. The format is functional, pseudomonas stuartiii.
The test system of data set [23] is Staphylococcus aureus. The data set can be described thus: microbe, parasite or virus in culture.
Description: The compound was tested for minimum inhibitory concentration in Staphylococcus aureus,147N penicillin sensitive Staphylococcus aureus
Data set [24] relates to Escherichia coli. The data set can be described thus: microbe, parasite or virus in culture.
Description: In vitro minimum inhibitory concentration against Escherichia coli (DC0 parent organism).
Data set [25] deals with Escherichia coli. As to the kind of experiment: microbe, parasite or virus in culture. This is another data set of the same source.
Description: In vitro minimum inhibitory concentration against Escherichia coli (DC2 permeability mutant).
Data set [26] concerns Staphylococcus aureus. The data set can be described thus: microbe, parasite or virus in culture. The source holds these as a separate data set.
Description: The compound was tested for minimum inhibitory concentration in Staphylococcus aureus Oxford penicillin sensitive Staphylococcus aureus

Beta-lactamase TEM (Escherichia coli), sequence (P62593 whole entry): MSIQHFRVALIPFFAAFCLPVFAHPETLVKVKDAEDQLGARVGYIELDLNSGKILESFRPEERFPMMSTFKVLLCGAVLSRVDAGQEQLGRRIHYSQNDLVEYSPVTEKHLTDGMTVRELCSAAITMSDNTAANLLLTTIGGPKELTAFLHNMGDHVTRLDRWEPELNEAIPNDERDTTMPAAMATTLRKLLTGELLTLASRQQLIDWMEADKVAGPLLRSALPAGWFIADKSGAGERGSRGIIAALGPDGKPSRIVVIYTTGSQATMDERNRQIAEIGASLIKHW

`CC(C)(O/N=C(\C(=O)N[C@@H]1C(=O)N2C(C(=O)O)=C(CNC(=O)c3cc(O)c4cc(O)c(O)cc4n3)CSC12)c1csc(N)n1)C(=O)O` (some centres not stated): the MIC against Pseudomonas aeruginosa [1] was 0.06 µg/mL (≈ 0.0873 µM); with Pseudomonas aeruginosa [2], 0.008 µg/mL (≈ 0.0116 µM); with Enterobacter cloacae [3], 4 µg/mL (≈ 5.82 µM); with Enterobacter cloacae [4], 16 µg/mL (≈ 23.3 µM); in the data set with Enterobacter cloacae [5] it was 0.5 µg/mL (≈ 0.727 µM); in the data set on Enterobacter cloacae [6] it was 0.06 µg/mL (≈ 0.0873 µM). Also, the MIC in the data set on Pseudomonas aeruginosa [7] worked out at 0.008 µg/mL (≈ 0.0116 µM); in the data set with Pseudomonas aeruginosa [8], 2 µg/mL (≈ 2.91 µM); against Pseudomonas aeruginosa [9], 0.125 µg/mL (≈ 0.182 µM); against Providencia stuartii [10], 16 µg/mL (≈ 23.3 µM); against Providencia stuartii [11], 0.008 µg/mL (≈ 0.0116 µM).
One may read the half-life as the time needed for the level to fall by half in the phase considered. In the case of `CC(C)(O/N=C(\C(=O)N[C@@H]1C(=O)N2C(C(=O)O)=C(CNC(=O)c3cc(Cl)c(O)c(O)c3Cl)CSC12)c1csc(N)n1)C(=O)O` (some centres not stated), in data set [12], the AUC came out at 461 mg/h/L. For the same compound, in data set [13], the half-life is 8.22 h. This compound registered a pKa in [14] of 6.3. Besides, the MIC against Enterobacter cloacae [15] was determined as 4 µg/mL (≈ 5.8 µM); against Citrobacter freundii [17] it was 2 µg/mL (≈ 2.9 µM); with Citrobacter freundii [18], 0.008 µg/mL (≈ 0.0116 µM); in the data set on Enterobacter cloacae [4], 4 µg/mL (≈ 5.8 µM); in the data set with Enterobacter cloacae [5], 0.008 µg/mL (≈ 0.0116 µM); in the data set with Enterobacter cloacae [6], 0.03 µg/mL (≈ 0.0435 µM). Moreover, the MIC in the data set on Pseudomonas aeruginosa [7] came out at 0.008 µg/mL (≈ 0.0116 µM); against Pseudomonas aeruginosa [9], 0.015 µg/mL (≈ 0.0218 µM); against Pseudomonas aeruginosa [19], 0.008 µg/mL (≈ 0.0116 µM); against Providencia stuartii [10] it was 1 µg/mL (≈ 1.45 µM); against Providencia stuartii [11] it was 0.06 µg/mL (≈ 0.087 µM); against Pseudomonas aeruginosa [20], 0.008 µg/mL (≈ 0.0116 µM). The same compound registered an Activity in the data set listed under Homo sapiens of 98.7%. Moreover, the dose excreted in data set [16] was found to be 16.2%.
With `CCn1cc(C(=O)NCC2=C(C(=O)O)N3C(=O)[C@@H](NC(=O)/C(=N\OC(C)(C)C(=O)O)c4csc(N)n4)C3SC2)c(=O)c2c(C#N)c(O)c(O)cc21` (some centres not stated), the MIC with Citrobacter freundii [21] was 0.03 µg/mL (≈ 0.0405 µM); in the data set on Pseudomonas aeruginosa [1] it was 0.008 µg/mL (≈ 0.0108 µM); in the data set on Pseudomonas aeruginosa [2] it was 0.008 µg/mL (≈ 0.0108 µM); with Providencia stuartii [22], 0.008 µg/mL (≈ 0.0108 µM); with Citrobacter freundii [18], 0.008 µg/mL (≈ 0.0108 µM); with Enterobacter cloacae [3], 0.5 µg/mL (≈ 0.675 µM). Besides, the MIC turned out to be 0.015 µg/mL (≈ 0.0203 µM) against Enterobacter cloacae [4]; 0.015 µg/mL (≈ 0.0203 µM) in the data set on Enterobacter cloacae [5]; 0.015 µg/mL (≈ 0.0203 µM) in the data set on Enterobacter cloacae [6]; 0.008 µg/mL (≈ 0.0108 µM) against Pseudomonas aeruginosa [7]; 0.008 µg/mL (≈ 0.0108 µM) with Pseudomonas aeruginosa [9]. The pKa in “physchem” was under 5.5.
On to `CC(C)(O/N=C(\C(=O)N[C@@H]1C(=O)N2C(C(=O)O)=C(CNC(=O)c3ccc(O)c(O)c3)CSC12)c1csc(N)n1)C(=O)O` (some centres not stated), for which, in [12], the AUC is 27.2 mg/h/L. In data set [13], this compound gave a half-life of 1.25 h. Also, in data set [14], the pKa was 8.5. Further, the Activity in the data set filed under Homo sapiens is 96.3%. The dose excreted in data set [16] came to 44.8%. Also, the MIC is 16 µg/mL (≈ 25.8 µM) against Staphylococcus aureus [23]; 16 µg/mL (≈ 25.8 µM) with Citrobacter freundii [17]; 0.03 µg/mL (≈ 0.0483 µM) against Citrobacter freundii [18]; over 128 µg/mL in the data set with Enterobacter cloacae [3]; 0.008 µg/mL (≈ 0.0129 µM) against Escherichia coli [24]; 16 µg/mL (≈ 25.8 µM) with Enterobacter cloacae [4]. The MIC in the data set on Enterobacter cloacae [5] came out at 0.125 µg/mL (≈ 0.201 µM); in the data set with Enterobacter cloacae [6], 0.125 µg/mL (≈ 0.201 µM); in the data set on Escherichia coli [25], 0.008 µg/mL (≈ 0.0129 µM); with Pseudomonas aeruginosa [7], 0.008 µg/mL (≈ 0.0129 µM); in the data set on Pseudomonas aeruginosa [8], 0.015 µg/mL (≈ 0.0242 µM); against Pseudomonas aeruginosa [9] it was 0.06 µg/mL (≈ 0.0967 µM). Moreover, the MIC amounted to 0.008 µg/mL (≈ 0.0129 µM) against Pseudomonas aeruginosa [19]; 1 µg/mL (≈ 1.61 µM) against Providencia stuartii [10]; 0.25 µg/mL (≈ 0.403 µM) in the data set with Providencia stuartii [11]; 8 µg/mL (≈ 12.9 µM) against Staphylococcus aureus [26]; 0.008 µg/mL (≈ 0.0129 µM) in the data set with Pseudomonas aeruginosa [20].
